Reference: ChEMBL document CHEMBL1140144 (J Med Chem, 2008)

Columns and labels:
Protease [1] = target: T1, Protease (Human immunodeficiency virus 1, UniProt Q9YQ12); assay: Inhibition of wild type HIV1 protease by uncompetitive binding
Protease [2] = target: T1, Protease; assay: Inhibition of wild type HIV1 protease by competitive binding

## CC(C)CN(C[C@@H](O)[C@H](Cc1ccccc1)NC(=O)O[C@H]1CCOC1)S(=O)(=O)c1ccc(N)cc1
Protease [1]
  Ki: 28 nM
Protease [2]
  Ki: 6.2 nM
